These are literature values, as cited in patent US20090239783A1, “SYNERGISTIC EFFECTS OF COMBINED ADMINISTRATION OF MIRTAZAPINE AND A STIMULANT COMPOUND” (priority 2004, published 2009).

Series [1] concerns 5-HT1 receptors.
The test system of series [2] is muscarinic.
Series [3] has as its target histamine (H1) (Homo sapiens, UniProt P35367).

Chain of histamine (H1) (P35367 whole entry): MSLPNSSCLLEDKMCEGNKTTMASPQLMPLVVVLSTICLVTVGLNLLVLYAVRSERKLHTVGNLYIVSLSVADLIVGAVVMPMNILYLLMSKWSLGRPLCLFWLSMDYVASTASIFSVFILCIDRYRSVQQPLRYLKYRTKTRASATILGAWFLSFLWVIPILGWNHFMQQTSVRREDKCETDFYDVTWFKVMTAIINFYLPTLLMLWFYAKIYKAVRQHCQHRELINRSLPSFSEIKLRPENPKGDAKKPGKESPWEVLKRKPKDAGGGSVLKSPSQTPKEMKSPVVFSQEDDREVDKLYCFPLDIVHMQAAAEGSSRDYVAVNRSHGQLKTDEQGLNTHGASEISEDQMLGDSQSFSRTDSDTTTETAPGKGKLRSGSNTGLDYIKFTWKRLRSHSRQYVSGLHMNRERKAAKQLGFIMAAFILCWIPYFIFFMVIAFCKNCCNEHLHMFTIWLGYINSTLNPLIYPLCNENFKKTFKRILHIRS

With `CN1CCN2c3ncccc3Cc3ccccc3C2C1` (stereo not shown) [Mirtazapine, 1,2,3,4,10,14b-hexahydro-2-methylpyrazino [2,1-a] pyrido [2,3-c] benzazepine], the solubility in water result is “slightly soluble”. In addition, in series [1], the “affinity for 5-HT1 receptors” value was “weak”. Further, the muscarinic anticholinergic properties result in series [2] is “very weak”. Further, the “histamine (H1) antagonist properties” value in series [3] was “very weak”.
